Test results published in BindingDB's records for doi:10.1016/s0960-894x(02)00382-7 (Novartis Pharma, 2002).
pIC50: −log10 of the molar value.

Molecular target: Substance-P receptor (Bos taurus)
Experiment: inhibition of [3H]Sar-SP binding to Tachykinin receptor 1 of bovine retina membranes

Row | SMILES | pIC50
1 | CN(C(=O)c1cc(C(F)(F)F)cc(C(F)(F)F)c1)c1cc(C(=O)N[C@@H]2CCCCNC2=O)ccc1-c1ccc(Cl)cc1 | 8.57
2 | COc1cc(C(=O)N(C)c2cc(C(=O)N[C@@H]3CCCCNC3=O)ccc2-c2ccc(Cl)cc2)cc(OC)c1OC | 7.89
3 | Cc1ccc(-c2ccc(C(=O)N[C@@H]3CCCCNC3=O)cc2N(C)C(=O)c2cc(C(F)(F)F)cc(C(F)(F)F)c2)cc1 | 8.22
4 | CN(C)CCCNC(=O)c1ccc(-c2ccc(Cl)cc2)c(N(C)C(=O)c2cc(C(F)(F)F)cc(C(F)(F)F)c2)c1 [2-[(3,5-Bis-trifluoromethyl-benzoyl)-methyl-amino]-4'-chloro-biphenyl-4-carboxylic acid (3-dimethylamino-propyl)-amide] | 9.00
5 | CN(C)C(=O)c1ccc(-c2ccc(Cl)cc2)c(N(C)C(=O)c2cc(C(F)(F)F)cc(C(F)(F)F)c2)c1 [2-[(3,5-Bis-trifluoromethyl-benzoyl)-methyl-amino]-4'-chloro-biphenyl-4-carboxylic acid dimethylamide] | 8.40
6 | CN(C(=O)c1cc(C(F)(F)F)cc(C(F)(F)F)c1)c1cc(C(=O)NC2CCCCC2)ccc1-c1ccc(F)cc1 [2-[(3,5-Bis-trifluoromethyl-benzoyl)-methyl-amino]-4'-fluoro-biphenyl-4-carboxylic acid cyclohexylamide] | 7.47

Continued by rising pIC50, values first:

Row | pIC50 | SMILES
7 | 9.00 | CN(C(=O)c1cc(C(F)(F)F)cc(C(F)(F)F)c1)c1cc(C(=O)N[C@@H]2CCCCNC2=O)ccc1-c1ccc(F)cc1
8 | 9.10 | CN(C(=O)c1cc(C(F)(F)F)cc(C(F)(F)F)c1)c1cc(C(=O)N[C@@H]2CCCCNC2=O)ccc1-c1ccc(Cl)c(Cl)c1
9 | 9.15 | COc1cc(C(=O)Nc2cc(C(=O)NC3CCCCNC3=O)ccc2-c2ccc(Cl)cc2)cc(OC)c1OC (centres undefined) [4'-Chloro-2-(3,4,5-trimethoxy-benzoylamino)-biphenyl-4-carboxylic acid (2-oxo-azepan-3-yl)-amide]
